From the supplement of paper PMC10307832

Assays:
Assay in all cases: relative viability (nuclei count vs DMSO), 5 days (fraction); higher = more cells survive
QS11 + Linsitinib = compound: C1CC2=C(C1)C=C(C=C2)OC3=NC(=C4C(=N3)N(C=N4)CC5=CC=C(C=C5)C6=CC=CC=C6)N[C@@H](CC7=CC=CC=C7)CO [QS11] + C[C@]1(O)C[C@@H](c2nc(-c3ccc4ccc(-c5ccccc5)nc4c3)c3c(N)nccn32)C1 [Linsitinib] (partner 1 µM)
In short: (§1)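 Relative viability equals treated-well nuclei counts divided by vehicle-well nuclei counts. Counts came from 4× images of lung cancer cell lines grown in 1536-well plates for 5 days after pin-tool dosing on the day after seeding. Dosing used one drug alone or a fixed anchor-drug dose plus five library-drug doses (not always all listed) in √10 steps, and values are medians of duplicate plates.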

AZ628 + Palbociclib = compound: CC1=C(C=C(C=C1)NC(=O)C2=CC(=CC=C2)C(C)(C)C#N)NC3=CC4=C(C=C3)N=CN(C4=O)C [AZ628] + CC(=O)c1c(C)c2cnc(Nc3ccc(N4CCNCC4)cn3)nc2n(C2CCCC2)c1=O [Palbociclib] (partner 0.5 µM)
In short: as §1

QS11 + Bortezomib = compound: C1CC2=C(C1)C=C(C=C2)OC3=NC(=C4C(=N3)N(C=N4)CC5=CC=C(C=C5)C6=CC=CC=C6)N[C@@H](CC7=CC=CC=C7)CO [QS11] + CC(C)C[C@H](NC(=O)[C@H](Cc1ccccc1)NC(=O)c1cnccn1)B(O)O [Bortezomib] (partner 0.002 µM)
In short: as §1

[1] = compound: C[As](C)SC[C@H](NC(=O)CC[C@H](N)C(=O)O)C(=O)NCC(=O)O [Darinaparsin] + Nc1nc2[nH]cc(CCc3ccc(C(=O)N[C@@H](CCC(=O)O)C(=O)O)cc3)c2c(=O)[nH]1 [Pemetrexed] (partner 0.2 µM)
In short: as §1

Row | Cell Line | relative viability (QS11 + Linsitinib; first compound 0.08 µM) | relative viability (QS11 + Linsitinib; first compound 0.253 µM) | relative viability (QS11 + Linsitinib; first compound 0.8 µM) | relative viability (QS11 + Linsitinib; first compound 2.53 µM) | relative viability (QS11 + Linsitinib; first compound 8 µM) | relative viability (AZ628 + Palbociclib; first compound 0.08 µM) | relative viability (AZ628 + Palbociclib; first compound 0.253 µM) | relative viability (AZ628 + Palbociclib; first compound 0.8 µM) | relative viability (AZ628 + Palbociclib; first compound 2.53 µM) | relative viability (AZ628 + Palbociclib; first compound 8 µM) | relative viability (QS11 + Bortezomib; first compound 0.08 µM) | relative viability (QS11 + Bortezomib; first compound 0.253 µM) | relative viability (QS11 + Bortezomib; first compound 0.8 µM) | relative viability (QS11 + Bortezomib; first compound 2.53 µM) | relative viability (QS11 + Bortezomib; first compound 8 µM) | relative viability ([1]; first compound 0.08 µM) | relative viability ([1]; first compound 0.8 µM) | relative viability ([1]; first compound 2.53 µM) | relative viability ([1]; first compound 8 µM)
1 | SK-LU-1 | 1.1 | 1.08 | 0.989 | 0.71 | 0.732 | 0.284 | 0.286 | 0.349 | 0.314 | 0.288 | 1.03 | 1.11 | 1.09 | 1.16 | 1.29 | 1.21 | 0.942 | 0.787 | 1.18
2 | SW 1573 | 0.837 | 0.729 | 0.824 | 0.817 | 0.696 | 0.409 | 0.312 | 0.275 | 0.291 | 0.173 | 0.957 | 1.07 | 0.971 | 1.12 | 0.837 | 1 | 0.84 | 0.815 | 0.939
3 | UMC-11 | 1.06 | 1.16 | 1.08 | 1.17 | 1.24 | 0.405 | 0.299 | 0.347 | 0.324 | 0.292 | 0.668 | 0.851 | 0.816 | 1.01 | 0.68 | 0.884 | 0.863 | 0.778 | 0.878
